The target in data set [1] is T1, HIV-1 RT (Human immunodeficiency virus type 1 group M subtype B, UniProt P04585).
T1 construct: The primary target of tenofovir diphosphate is reverse transcriptase (RT)
To be noted: inhibition of HIV-1 RT; competitive with deoxyadenosine triphosphate incorporation; read-out: inhibition constant; cited from earlier work.

In data set [2] the test system is laboratory HIV-1 strains and primary clinical isolates. To be noted: cited from earlier work.
For data set [3] the following is noted: atazanavir/ritonavir 300/100 mg once daily, cited from earlier work.
The conditions of data set [4]: cited from earlier work; for Geometric mean ratio (95% confidence interval) for the AUC: saquinavir hard gel/ritonavir 1000/100 mg twice daily + tenofovir disoproxil fumarate 300 mg once daily.
For data set [5] the following is noted: ritonavir 100 mg once daily with atazanavir, cited from earlier work.
For data set [6] the following is noted: healthy subjects, cited from earlier work; for AUC increase / Cmax increase / Cmin increase: saquinavir/ritonavir 1000/100 mg twice daily with tenofovir disoproxil fumarate 300 mg once daily vs alone.
A short description of data set [7]: Volunteer study of TMC114/ritonavir with tenofovir disoproxil fumarate, pharmacokinetics and tolerability. The protocol:
Methods: 13 healthy volunteers were randomised into 2 cohorts.
In session 2, both cohorts received 300 mg tenofovir disoproxil fumarate qd for 14 days.

For data set [8] the following is noted: lopinavir/ritonavir 400/100 mg twice daily 14 days + tenofovir 300 mg once daily, healthy volunteers; cited from earlier work.
Setting [9] is: after addition of tenofovir disoproxil fumarate 300 mg once daily.
The mark [10] stands for this setting: before addition of tenofovir disoproxil fumarate.
[11] abbreviates: in the presence of tenofovir 300 mg once daily.
Where [12] appears, read: tenofovir disoproxil fumarate 300 mg qd with TMC114/ritonavir co-administered vs alone, statistically significant.

Where two headings read alike, the source gives them in different places.

In the case of `CC(Cn1cnc2c(N)ncnc21)OCP(=O)(O)OP(=O)(O)OP(=O)(O)O` (stereo in doubt) [tenofovir diphosphate], in data set [1], the Ki is about 900 nM.

The IC90 is the concentration at which the effect reaches the 90% level. Consider `CC(C)CN(C[C@@H](O)[C@H](Cc1ccccc1)NC(=O)OC1CO[C@H]2OCC[C@@H]12)S(=O)(=O)c1ccc(N)cc1` (some centres unmarked) [TMC114], for which, in data set [2], the IC90 was about 9 nM. Moreover, the IC50 in data set [2] (read-out: 50% inhibitory concentration [IC50]) was about 3 nM.

Regarding `COC(=O)N[C@H](C(=O)N[C@@H](Cc1ccccc1)[C@@H](O)CN(Cc1ccc(-c2ccccn2)cc1)NC(=O)[C@@H](NC(=O)OC)C(C)(C)C)C(C)(C)C` [atazanavir], in data set [3] (setting [9]), the “AUC (mean±sd)” value is 39276 ± 23034 ng·h/mL and the “Cmax (mean±sd)” value is 3443 ± 1412 ng/mL. In data set [3] (setting [10]), the “AUC (mean±sd)” value is 53761 ± 35255 ng·h/mL and the “Cmax (mean±sd)” value was 5233 ± 3033 ng/mL.

A word on the AUC: it is concentration integrated over time. Usually Cmax stands for the highest concentration seen after dosing. Consider `CC(C)c1nc(CN(C)C(=O)N[C@H](C(=O)N[C@@H](Cc2ccccc2)C[C@H](O)[C@H](Cc2ccccc2)NC(=O)OCc2cncs2)C(C)C)cs1` [ritonavir], for which the “plasma concentrations compared with day 1” value in data set [4] (in vivo) is reported as “not significantly different”. Also, the AUC in data set [5] (setting [11]) is 5217 ng·h/mL; in data set [5] (without tenofovir, HIV+ subjects) it was 7011 ng·h/mL. Also, the Cmax was 642 ng/mL in data set [5] (setting [11]) and 886 ng/mL in data set [5] (without tenofovir).

Regarding `CC(C)(C)NC(=O)[C@@H]1C[C@@H]2CCCC[C@@H]2CN1C[C@@H](O)[C@H](Cc1ccccc1)NC(=O)[C@H](CC(N)=O)NC(=O)c1ccc2ccccc2n1` [saquinavir], in data set [6], the AUC increase was 29%, the Cmax increase is listed as 22% and the Cmin increase is listed as 47%. The “Cmin achieved by all subjects” value in data set [6] (saquinavir/ritonavir 1000/100 mg twice daily) is recorded as “above 100 ng/ml”. For the same compound, the “Geometric mean ratio (95% confidence interval) for the AUC” value in data set [4] (day 3 vs day 1) was 1.16 (0.97, 1.59). For the same compound, in data set [4] (day 14 vs day 1), the “Geometric mean ratio (95% confidence interval) for the AUC” value is listed as 0.99 (0.87, 1.30). For the same compound, the “plasma concentrations compared with day 1” value in data set [4] (following the addition of tenofovir disoproxil fumarate) is on record as “not significantly different”.

For the compound `C[C@H](Cn1cnc2c(N)ncnc21)OCP(=O)(O)O` [tenofovir], in data set [6], the AUC increase is given as 14%, the Cmax increase is on record as 15% and the Cmin increase was 23%. Also, the “urinary excretion of unchanged drug during one dosing interval” value in data set [7] (in the presence and absence of TMC114/RTV) is “approximately 36%”. In addition, in data set [7] (setting [12]), the “AUC24h (systemic exposure) increase based on the ratio of LSmeans” value is reported as 22%, the “Cmax increase based on the ratio of LSmeans” value is given as 24% and the “Cmin increase based on the ratio of LSmeans” value came to 37%. Besides, in data set [8], the AUC increase is 34%, the Cmax increase is 31% and the Cmin increase is given as 29%.

These data come from US20070208009A1, “COMBINATION OF ANTI-HIV REVERSE TRANSCRIPTASE AND PROTEASE INHIBITORS” (priority 2004, published 2007).
